Molecules are shown by their SMILES.

Series [1] relates to Rattus norvegicus. Put plainly: Antihypertensive activity in rat spontaneous hypertensive model assessed as mean arterial blood pressure at 80 mg/kg, po measured at 8 hrs by tail-cuff method (reference value: 155.8 +/- 11.54 mmHg). Format: functional, Artery.
The test system of series [2] is Rattus norvegicus. Put plainly: Antihypertensive activity in rat spontaneous hypertensive model assessed as mean arterial blood pressure at 80 mg/kg, po measured at 6 hrs by tail-cuff method (reference value: 155.8 +/- 7.97 mmHg). Format: functional, Artery.
Series [3] concerns Rattus norvegicus. Description: Antihypertensive activity in rat spontaneous hypertensive model assessed as mean arterial blood pressure at 80 mg/kg, po measured at 4 hrs by tail-cuff method (reference value: 154.4 +/- 20.1 mmHg). Format: functional, Artery.
The subject of series [4] is Rattus norvegicus. Put plainly: Antihypertensive activity in rat spontaneous hypertensive model assessed as mean arterial blood pressure at 80 mg/kg, po measured at 2 hrs by tail-cuff method (reference value: 157.41 +/- 9.62 mmHg). Type of series: functional, Artery.
Series [5] relates to Rattus norvegicus. Put plainly: Antihypertensive activity in rat spontaneous hypertensive model assessed as mean arterial blood pressure at 80 mg/kg, po measured at 1 hr by tail-cuff method (reference value: 158.9 +/- 13.65 mmHg). Format: functional, Artery.
Series [6] concerns Rattus norvegicus. Put plainly: Antihypertensive activity in rat spontaneous hypertensive model assessed as mean arterial blood pressure at 80 mg/kg, po measured at 0.5 hrs by tail-cuff method (reference value: 156.2 +/- 7.21 mmHg). Format: functional, Artery.
For series [7], the system named is Rattus norvegicus. Description: Antihypertensive activity in rat spontaneous hypertensive model assessed as diastolic arterial blood pressure at 80 mg/kg, po measured at 8 hrs by tail-cuff method (reference value: 135.3 +/- 8.21 mmHg). Format: functional, Artery.
Series [8] concerns Rattus norvegicus. Description: Antihypertensive activity in rat spontaneous hypertensive model assessed as diastolic arterial blood pressure at 80 mg/kg, po measured at 6 hrs by tail-cuff method (reference value: 141.2 +/- 7.34 mmHg). Format: functional, Artery.
In series [9] the test system is Rattus norvegicus. Put plainly: Antihypertensive activity in rat spontaneous hypertensive model assessed as diastolic arterial blood pressure at 80 mg/kg, po measured at 4 hrs by tail-cuff method (reference value: 141.4 +/- 7.11 mmHg). Type of series: functional, Artery.
The test system of series [10] is Rattus norvegicus. Description: Antihypertensive activity in rat spontaneous hypertensive model assessed as diastolic arterial blood pressure at 80 mg/kg, po measured at 2 hrs by tail-cuff method (reference value: 142.9 +/- 18.07 mmHg). Type of series: functional, Artery.
Series [11] deals with Rattus norvegicus. Description: Antihypertensive activity in rat spontaneous hypertensive model assessed as diastolic arterial blood pressure at 80 mg/kg, po measured at 1 hr by tail-cuff method (reference value: 146.2 +/- 13.19 mmHg). Type of series: functional, Artery.
Series [12] deals with Rattus norvegicus. Description: Antihypertensive activity in rat spontaneous hypertensive model assessed as diastolic arterial blood pressure at 80 mg/kg, po measured at 0.5 hrs by tail-cuff method (reference value: 138.7 +/- 9.2 mmHg). Format: functional, Artery.
Series [13] deals with Rattus norvegicus. Description: Antihypertensive activity in rat spontaneous hypertensive model assessed as systolic arterial blood pressure at 80 mg/kg, po measured at 8 hrs by tail-cuff method (reference value: 174 +/- 12.1 mmHg). Type of series: functional, Artery.
Series [14] concerns Rattus norvegicus. Put plainly: Antihypertensive activity in rat spontaneous hypertensive model assessed as systolic arterial blood pressure at 80 mg/kg, po measured at 6 hrs by tail-cuff method (reference value: 176.7 +/- 15.21 mmHg). Format: functional, Artery.
In series [15] the test system is Rattus norvegicus. Put plainly: Antihypertensive activity in rat spontaneous hypertensive model assessed as systolic arterial blood pressure at 80 mg/kg, po measured at 4 hrs by tail-cuff method (reference value: 172.9 +/- 10.21 mmHg). Format: functional, Artery.
The subject of series [16] is Rattus norvegicus. Put plainly: Antihypertensive activity in rat spontaneous hypertensive model assessed as systolic arterial blood pressure at 80 mg/kg, po measured at 2 hrs by tail-cuff method (reference value: 172.6 +/- 17.3 mmHg). Type of series: functional, Artery.
Series [17] has as its system Rattus norvegicus. Description: Antihypertensive activity in rat spontaneous hypertensive model assessed as systolic arterial blood pressure at 80 mg/kg, po measured at 1 hr by tail-cuff method (reference value: 181.2 +/- 16.37 mmHg). Format: functional, Artery.
The test system of series [18] is Rattus norvegicus. Description: Antihypertensive activity in rat spontaneous hypertensive model assessed as systolic arterial blood pressure at 80 mg/kg, po measured at 0.5 hrs by tail-cuff method (reference value: 178.5 +/- 10.13 mmHg). Type of series: functional, Artery.
For series [19], the system named is Rattus norvegicus. Put plainly: Toxicity in rat spontaneous hypertensive model assessed as heart rate at 80 mg/kg, po measured at 8 hrs by tail-cuff method (reference value: 397.2 +/- 24.87 bpm). Also noted: dose 80 mg/kg, route oral. Type of series: organism-based. The settings on record: in vivo.
In series [20] the test system is Rattus norvegicus. Description: Toxicity in rat spontaneous hypertensive model assessed as heart rate at 80 mg/kg, po measured at 6 hrs by tail-cuff method (reference value: 405.1 +/- 24 bpm). Format: organism-based. More on the design: dose 80 mg/kg, route oral. Conditions: in vivo.
Series [21] has as its system Rattus norvegicus. Description: Toxicity in rat spontaneous hypertensive model assessed as heart rate at 80 mg/kg, po measured at 4 hrs by tail-cuff method (reference value: 403.1 +/- 15.92 bpm). Format: organism-based. More on the design: dose 80 mg/kg, route oral. Conditions: in vivo.
For series [22], the system named is Rattus norvegicus. Description: Toxicity in rat spontaneous hypertensive model assessed as heart rate at 80 mg/kg, po measured at 2 hrs by tail-cuff method (reference value: 399.5 +/- 19.68 bpm). Type of series: organism-based. More on the design: dose 80 mg/kg, route oral. The settings on record: in vivo.
The subject of series [23] is Rattus norvegicus. Put plainly: Toxicity in rat spontaneous hypertensive model assessed as heart rate at 80 mg/kg, po measured at 1 hr by tail-cuff method (reference value: 403.9 +/- 12.41 bpm). More on the design: dose 80 mg/kg, route oral. The settings on record: in vivo. Type of series: organism-based.
In series [24] the test system is Rattus norvegicus. Put plainly: Toxicity in rat spontaneous hypertensive model assessed as heart rate at 80 mg/kg, po measured at 0.5 hrs by tail-cuff method (reference value: 406.5 +/- 13.15 bpm). Type of series: organism-based. Also noted: dose 80 mg/kg, route oral. The settings on record: in vivo.

For the compound `COc1cc2c(cc1OCC(O)CNC(C)C)C(=O)C(C)OC2` (configuration not stated), the Activity with Rattus norvegicus [1] came out at 124.2 mmHg; with Rattus norvegicus [2], 121 mmHg; in the series on Rattus norvegicus [3] it was 118.1 mmHg; in the series with Rattus norvegicus [4], 122.1 mmHg; in the series with Rattus norvegicus [5], 128.8 mmHg; with Rattus norvegicus [6], 134 mmHg. Moreover, the Activity in the series with Rattus norvegicus [7] is reported as 107.7 mmHg; in the series with Rattus norvegicus [8], 99 mmHg; with Rattus norvegicus [9], 99.8 mmHg; in the series with Rattus norvegicus [10] it was 101 mmHg; in the series with Rattus norvegicus [11] it was 113.9 mmHg; in the series on Rattus norvegicus [12] it was 113.7 mmHg. Moreover, the Activity with Rattus norvegicus [13] is reported as 162.6 mmHg; with Rattus norvegicus [14] it was 164.2 mmHg; in the series with Rattus norvegicus [15], 166.6 mmHg; in the series with Rattus norvegicus [16], 165.7 mmHg; in the series with Rattus norvegicus [17] it was 164.5 mmHg; with Rattus norvegicus [18], 174.1 mmHg. The Activity in the series on Rattus norvegicus [19] was 367.7 bpm; in the series on Rattus norvegicus [20], 355.2 bpm; with Rattus norvegicus [21], 358.5 bpm; in the series on Rattus norvegicus [22] it was 356.9 bpm; in the series on Rattus norvegicus [23] it was 365.6 bpm; in the series on Rattus norvegicus [24] it was 367 bpm.
For the compound `COc1cc2c(cc1OCC(O)CNC(C)C)COC(C)C2=O` (configuration not stated), the Activity in the series with Rattus norvegicus [1] came out at 119 mmHg; with Rattus norvegicus [2], 114 mmHg; with Rattus norvegicus [3], 97.8 mmHg; with Rattus norvegicus [4], 103.9 mmHg; in the series with Rattus norvegicus [5], 123.1 mmHg; with Rattus norvegicus [6], 142.2 mmHg. Further, the Activity with Rattus norvegicus [7] amounted to 98 mmHg; in the series with Rattus norvegicus [8], 91.4 mmHg; with Rattus norvegicus [9], 83 mmHg; in the series on Rattus norvegicus [10], 84.1 mmHg; in the series with Rattus norvegicus [11], 102.8 mmHg; in the series on Rattus norvegicus [12] it was 128.7 mmHg. Besides, the Activity is 158.3 mmHg with Rattus norvegicus [13]; 150.5 mmHg in the series on Rattus norvegicus [14]; 141 mmHg in the series on Rattus norvegicus [15]; 152.8 mmHg with Rattus norvegicus [16]; 160.9 mmHg in the series with Rattus norvegicus [17]; 169.2 mmHg in the series with Rattus norvegicus [18]. The Activity was 372.8 bpm with Rattus norvegicus [19]; 370 bpm in the series with Rattus norvegicus [20]; 361.4 bpm in the series with Rattus norvegicus [21]; 365.1 bpm with Rattus norvegicus [22]; 378.3 bpm in the series on Rattus norvegicus [23]; 385.4 bpm with Rattus norvegicus [24].
Regarding `COc1ccc2c(c1OCC(O)CNC(C)C)COC(C)C2=O` (configuration not stated), the Activity with Rattus norvegicus [1] amounted to 137.4 mmHg; with Rattus norvegicus [2], 138.9 mmHg; in the series on Rattus norvegicus [3], 135.4 mmHg; in the series with Rattus norvegicus [4], 129.3 mmHg; in the series on Rattus norvegicus [5], 133.1 mmHg; in the series with Rattus norvegicus [6], 144.8 mmHg. Moreover, the Activity in the series with Rattus norvegicus [7] was found to be 122.9 mmHg; with Rattus norvegicus [8] it was 124.4 mmHg; with Rattus norvegicus [9], 117.7 mmHg; in the series with Rattus norvegicus [10], 109.5 mmHg; with Rattus norvegicus [11] it was 114.6 mmHg; in the series with Rattus norvegicus [12] it was 129.6 mmHg. In addition, the Activity in the series on Rattus norvegicus [13] came out at 166.3 mmHg; in the series with Rattus norvegicus [14], 168 mmHg; with Rattus norvegicus [15], 170.9 mmHg; in the series on Rattus norvegicus [16], 169 mmHg; in the series with Rattus norvegicus [17], 170.1 mmHg; in the series with Rattus norvegicus [18], 175.3 mmHg. For the same compound, the Activity in the series on Rattus norvegicus [19] is 372.8 bpm; with Rattus norvegicus [20], 374.7 bpm; with Rattus norvegicus [21], 373.2 bpm; in the series on Rattus norvegicus [22], 368.8 bpm; in the series on Rattus norvegicus [23] it was 375 bpm; with Rattus norvegicus [24] it was 383.4 bpm.

The values are drawn from ChEMBL document CHEMBL2375284, “Novel hybrids of natural isochroman-4-one bearing N-substituted isopropanolamine as potential antihypertensive candidates” (Bioorg Med Chem, 2013).
